PMC4664558 (Clinical Pharmacology and Therapeutics, 2015)
“And” between values parts separate entries of the source, which are not always exact repeats. Equal values may be shown once. Read-outs that look alike come from different tables or passages of the source.

Assays:
OATP1B2 = molecular target: T1, OATP1B2 (Rattus norvegicus, UniProt Q9QZX8); test: Inhibition of E217βDG active uptake in cryopreserved rat hepatocytes; settings: for Predicted R value: OATP1B1/1B3-based DDI, 1 + [I]inlet,max/Ki, Ki approximated by IC50; for inhibition at 3 min, 100 μM: rat, cryopreserved rat hepatocytes, probe [3H] β-estradiol 17-β-D-glucuronide (E217βDG), 1 μM, 0.1 μCi
T1 sequence (Q9QZX8 1-687): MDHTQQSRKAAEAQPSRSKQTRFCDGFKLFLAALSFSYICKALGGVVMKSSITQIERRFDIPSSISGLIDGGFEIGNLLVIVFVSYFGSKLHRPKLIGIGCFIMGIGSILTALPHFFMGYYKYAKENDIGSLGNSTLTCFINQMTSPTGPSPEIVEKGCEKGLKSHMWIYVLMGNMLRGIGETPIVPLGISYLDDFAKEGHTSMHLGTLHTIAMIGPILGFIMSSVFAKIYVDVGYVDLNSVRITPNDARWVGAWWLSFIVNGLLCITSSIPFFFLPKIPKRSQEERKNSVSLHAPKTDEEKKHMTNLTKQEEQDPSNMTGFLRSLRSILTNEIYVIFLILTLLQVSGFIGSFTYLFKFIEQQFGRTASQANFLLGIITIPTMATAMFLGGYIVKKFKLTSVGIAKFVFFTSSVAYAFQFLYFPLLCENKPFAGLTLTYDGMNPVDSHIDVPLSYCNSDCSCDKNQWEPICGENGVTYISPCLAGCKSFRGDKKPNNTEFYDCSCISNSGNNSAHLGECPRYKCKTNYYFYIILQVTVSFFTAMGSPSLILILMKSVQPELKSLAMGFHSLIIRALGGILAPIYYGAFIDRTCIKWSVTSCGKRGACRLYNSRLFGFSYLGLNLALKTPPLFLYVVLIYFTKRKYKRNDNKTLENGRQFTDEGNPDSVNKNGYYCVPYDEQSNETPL

[1] = Peak plasma / gut / hepatic inlet concentration at the highest clinical dose; type: in vivo, human; settings: for Maximal hepatic inlet concentration ([I]inlet,max): Cmax + (ka x Dose x FaFg/Qh); for Inhibitor concentration ([I]): [I] equal to Cmax
[2] = INPC cohort study: risk of myopathy after prescription of drug pairs; settings: adjusted for age and sex; for Risk2 (myopathy risk for drug 2): drug 2 only
rat L6 myotubes = test: Myotoxicity in rat L6 myotubes; type: cell-based; settings: 10 μM for 5 days, compared to DMSO control
CYP2D6 [3] = molecular target: T2, CYP2D6 (Homo sapiens, UniProt P10635); test: biochemical
[4] = peak total plasma concentration at the highest clinical dose; cited from earlier work
CYP2C19 = CYP2C19 (Homo sapiens, UniProt P33261); test: Fluorometric CYP inhibition assay; type: biochemical; settings: for Ki: pathway CYP2C19
CYP2C9 [5] = molecular target: T3, CYP2C9 (Homo sapiens, UniProt P11712)
CYP2D6 [6] = molecular target: T2, CYP2D6
CYP2C9 [7] = molecular target: T3, CYP2C9; test: biochemical; settings: pathway CYP2C9
CYP3A4 = CYP3A4 (Homo sapiens, UniProt P08684)
[8] = cited from earlier work
[9] = Dissociation constant (Ki), pathway CYP2D6
[10] = Unbound dissociation constant (Ki,u), pathway CYP2D6, Ki * fu,inc
[11] = Unbound dissociation constant (Ki,u), Ki * fu,inc

CYP2C19, sequence (P33261 whole entry): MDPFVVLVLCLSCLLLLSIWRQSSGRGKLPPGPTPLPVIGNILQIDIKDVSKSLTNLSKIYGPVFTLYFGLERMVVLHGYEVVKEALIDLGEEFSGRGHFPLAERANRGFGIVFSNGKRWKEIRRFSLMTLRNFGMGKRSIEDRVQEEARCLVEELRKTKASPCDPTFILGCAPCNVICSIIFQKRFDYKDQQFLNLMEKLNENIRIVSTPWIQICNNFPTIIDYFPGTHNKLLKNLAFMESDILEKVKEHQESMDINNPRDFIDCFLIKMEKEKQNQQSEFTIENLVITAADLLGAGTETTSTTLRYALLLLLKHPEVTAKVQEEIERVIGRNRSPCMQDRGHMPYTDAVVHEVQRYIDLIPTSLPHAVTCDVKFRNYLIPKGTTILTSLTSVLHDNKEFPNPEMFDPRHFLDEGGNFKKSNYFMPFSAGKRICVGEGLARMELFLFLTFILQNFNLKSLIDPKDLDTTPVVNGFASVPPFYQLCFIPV
T2 sequence (P10635 whole entry): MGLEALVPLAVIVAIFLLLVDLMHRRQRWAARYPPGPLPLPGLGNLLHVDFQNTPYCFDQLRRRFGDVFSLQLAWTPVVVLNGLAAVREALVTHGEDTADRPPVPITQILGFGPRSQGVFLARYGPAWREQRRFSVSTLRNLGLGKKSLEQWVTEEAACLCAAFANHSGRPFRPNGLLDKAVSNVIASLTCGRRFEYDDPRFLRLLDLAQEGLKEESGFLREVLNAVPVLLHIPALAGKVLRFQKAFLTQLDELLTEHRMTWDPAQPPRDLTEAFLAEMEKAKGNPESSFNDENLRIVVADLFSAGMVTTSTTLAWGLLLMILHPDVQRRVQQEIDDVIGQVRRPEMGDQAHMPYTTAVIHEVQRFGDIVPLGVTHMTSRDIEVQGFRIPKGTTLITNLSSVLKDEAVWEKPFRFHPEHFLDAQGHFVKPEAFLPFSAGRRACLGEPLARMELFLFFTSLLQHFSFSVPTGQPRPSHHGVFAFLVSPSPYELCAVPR
T3 sequence (P11712 whole entry): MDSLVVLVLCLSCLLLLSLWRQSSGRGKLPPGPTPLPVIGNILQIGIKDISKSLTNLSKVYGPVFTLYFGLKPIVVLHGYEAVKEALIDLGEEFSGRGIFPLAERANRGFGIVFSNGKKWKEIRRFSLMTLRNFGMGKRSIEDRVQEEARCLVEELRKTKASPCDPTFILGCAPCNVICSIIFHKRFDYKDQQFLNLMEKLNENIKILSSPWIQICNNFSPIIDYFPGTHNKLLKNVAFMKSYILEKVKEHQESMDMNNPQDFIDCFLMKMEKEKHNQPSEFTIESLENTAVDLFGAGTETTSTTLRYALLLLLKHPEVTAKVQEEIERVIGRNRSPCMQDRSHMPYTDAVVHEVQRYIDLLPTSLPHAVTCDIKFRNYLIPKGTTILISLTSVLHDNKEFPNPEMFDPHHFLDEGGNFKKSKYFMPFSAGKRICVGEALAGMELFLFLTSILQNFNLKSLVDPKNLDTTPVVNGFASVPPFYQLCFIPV
CYP3A4, sequence (P08684 whole entry): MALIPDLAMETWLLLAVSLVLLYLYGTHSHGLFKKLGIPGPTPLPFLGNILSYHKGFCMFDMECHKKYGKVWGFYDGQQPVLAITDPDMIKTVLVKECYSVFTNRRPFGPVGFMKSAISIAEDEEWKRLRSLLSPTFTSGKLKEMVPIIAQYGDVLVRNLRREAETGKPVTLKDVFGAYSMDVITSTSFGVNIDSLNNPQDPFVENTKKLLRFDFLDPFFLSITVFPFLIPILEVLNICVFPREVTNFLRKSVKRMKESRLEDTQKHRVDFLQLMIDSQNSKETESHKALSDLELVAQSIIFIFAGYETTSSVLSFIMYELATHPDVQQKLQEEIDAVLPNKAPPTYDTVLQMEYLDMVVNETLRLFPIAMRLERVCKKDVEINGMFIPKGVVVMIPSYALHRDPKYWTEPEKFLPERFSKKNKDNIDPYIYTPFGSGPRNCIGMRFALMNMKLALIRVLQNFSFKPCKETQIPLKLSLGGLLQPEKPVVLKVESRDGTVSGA

| SMILES | inhibition at 3 min, 100 μM (OATP1B2) [%] | Maximal hepatic inlet concentration ([I]inlet,max) [1] [µM] | Risk2 (myopathy risk for drug 2) [2] | myotube death (rat L6 myotubes) [%] | Inhibitor concentration ([I]) [1] [µM] | Peak plasma concentration (Cmax) [4] | also measured |
| --- | --- | --- | --- | --- | --- | --- | --- |
| Cc1nnc2n1-c1ccc(Cl)cc1C(c1ccccc1)=NC2 [Alprazolam] | 54.5 ± 0.3 | 0.981 | 0.029 | – | – | – | IC50 (OATP1B2): 99.5 µM; Predicted R value (OATP1B2): 1.01 |
| Clc1ccc2c(c1)CCc1cccnc1C2=C1CCNCC1 [Desloratadine] | – | – | – | 73.3 ± 1.1 | – | – | – |
| CCOC(=O)N1CCC(=C2c3ccc(Cl)cc3CCc3cccnc32)CC1 [Loratadine] | – | – | – | – | 0.011 | – | Risk1 (myopathy risk for drug 1) ([2]; drug 1 only): 0.022 and 0.020 |
| COc1ccc2[nH]c([S+]([O-])Cc3ncc(C)c(OC)c3C)nc2c1 (stereo not drawn) [Omeprazole] | 60.1 ± 4.8 | 19.586 | 0.059 | – | – | – | IC50 (OATP1B2): 84.3 µM; Predicted R value (OATP1B2): 1.23 |
| CC(CN1c2ccccc2Sc2ccccc21)N(C)C (stereo not drawn) [Promethazine] | 17.7 ± 7.7 | – | – | – | 0.068 | 19.3 (36) ng/ml | Ki (CYP2D6 [3]; Dissociation constant (Ki)): 0.25 µM; Ki (CYP2D6 [3]; Unbound dissociation constant (Ki,u)): 0.22 µM |
| CCCN(CCC)CCc1cccc2c1CC(=O)N2 [Ropinirole] | 23.7 ± 2.7 | – | 0.018 | – | 0.103 | 26.9 (37) ng/ml | Ki (CYP2D6 [3]; [9]): 0.85 µM; Ki (CYP2D6 [3]; [10]): 0.71 µM |
| CCC(C)(C)C(=O)O[C@H]1C[C@@H](C)C=C2C=C[C@H](C)[C@H](CC[C@@H](O)C[C@@H](O)CC(=O)O)[C@H]21 [Simvastatin acid] | – | 12.274 | – | 33.0 ± 2.1 | – | – | – |
| CCC(C)(C)C(=O)O[C@H]1C[C@@H](C)C=C2C=C[C@H](C)[C@H](CC[C@@H]3C[C@@H](O)CC(=O)O3)[C@H]21 [Simvastatin] | – | – | 0.033 | 73.7 ± 2.6 | – | – | – |
| [H]/N=C(/NCCCCC)N/N=C/c1c[nH]c2ccc(OC)cc12 [Tegaserod] | 24.6 ± 15.3 | – | 0.020 | 97.9 ± 0.4 | 0.009 | 2.7 (39) ng/ml | Ki (CYP2D6 [3]; [9]): 0.51 µM; Ki (CYP2D6 [3]; [10]): 0.47 µM; Predicted R-values (CYP2C19): 1.00; Ki (CYP2C19; Dissociation constant (Ki)): 9.2 µM; Ki (CYP2C19; [11]): 8.48 µM; Predicted R-values (CYP2C9 [5]): 1.00; Predicted R-values (CYP2D6 [6]): 1.02; Ki (CYP2C9 [7]; Dissociation constant (Ki)): 11.4 µM; Ki (CYP2C9 [7]; [11]): 10.5 µM; Predicted R-values (CYP3A4): 1.17 |
| COCc1c(C(C)C)nc(C(C)C)c(/C=C/[C@@H](O)C[C@@H](O)CC(=O)O)c1-c1ccc(F)cc1 [cerivastatin] | – | – | – | – | – | – | risk of rhabdomyolysis relative to other statins [8]: 10 fold; risk of rhabdomyolysis relative to other statins ([8]; with concurrent use of gemfibrozil): 50 fold |
